# From patent publication US8785483B2, “Methods for treating COPD” (The Board of Regents of the University of Texas System, priority 2010, dated 2014)
# Tests used:
# Type in all cases: cell-based, human
# ERK1/2 = test: Western blot of ERK1/2 phosphorylation in airway epithelial monolayer; details: ALI monolayer, AR inhibitor 24 h prior to IL-13
# Description: (§1) FIG. 7. AR inhibition prevents IL-13-induced phosphorylation of JAK-1, ERK1/2 and STAT-6 in airway epithelial monolayer. The ciliated monolayer of airway cells at ALI was treated with AR inhibitor for 24 h and stimulated with IL-13 for different time periods as indicated. At the end of incubation, cells were lysed and cell lysate was subjected to western blotting using antibodies against phosphorylated and nonphosphorylated JAK-1, ERK1/2 and STAT-6 to analyze the activation of these signaling proteins. A representative blot is shown (n=4). #p<0.001 vs Control; *p<0.01 and **p<0.001 vs IL-13. For air-liquid interface (ALI) culture, SAEC were seeded at 8.5×10^4 cells/12-mm-diameter PET transparent insert with […] pores (12-well millicell culture insert; Millipore) and pre-coated with rat tail collagen type-1 (Sigma-Aldrich). The cells were grown submerged in the differentiation medium as described earlier by Zhen et al. (Am J Respir Cell Mol Biol 36: 244-253, 2007). […] Protein levels were determined using Bradford reagent (Biorad, Hercules, Calif.). […] The blots were then washed, exposed to HRP-conjugated secondary antibodies (1:5,000 dilution) for 1 h, and the antigen-antibody complex was detected by enhanced chemiluminescence (Amersham Pharmacia Biotech, Piscataway, N.J., USA). […]
# JAK1 = test: Western blot of JAK1 phosphorylation in airway epithelial monolayer
# Description: as §1
# [1] = system: small airway epithelial cells (SAEC); test: Cell viability (MTT) assay, CSE-induced cell death; details: 24 h, with fidarestat (10 μM in FIG. 1 legend, 20 μM in method)
# Description: FIG. 1. Inhibition of AR prevents cigarette smoke extract (CSE)-induced cell-death in small airway epithelial cells (SAEC). MTT assay was performed after incubating the cells for 24 h with different concentrations of CSE in absence and presence of 10 μM Fidarestat. Bars (Mean±SD; n=6) represent the absorbance at 570 nm corresponding to live cells. Primary human Small Airway Epithelial Cells (SAEC) obtained from Lonza (Walkersville, Md.) were normal human SAEC harvested from distal airspace of donor. The cells were cultured according to the supplier's instructions at 37° C. in humidified atmosphere containing 95% air and 5% CO2 in small airway epithelial basal medium (SABM) with supplements containing 52 μg/ml bovine pituitary extract, 0.5 ng/ml human recombinant epidermal growth factor (EGF), 0.5 μg/ml epinephrine, 1 μg/ml hydrocortisone, 10 μg/ml transferrin, 5 μg/ml insulin, 0.1 ng/ml retinoic acid (RA), 6.5 ng/ml triiodothyronine, 50 μg/ml Gentamicin/Amphotericin-B (GA-1000), and 50 μg/ml fatty acid-free bovine serum albumin (BSA). […] Absorbance was read at 570 nm using a 96-well ELISA plate reader.
compound,measurement,setting,value
"NC(=O)[C@@H]1C[C@]2(NC(=O)NC2=O)c2cc(F)ccc2O1 [fidarestat, (2S,4S)-2-aminoformyl-6-fluoro-spiro[chroman-4,4′-imidazolidine]-2′,5′-dione]",IL-13-induced phosphorylation of ERK1/2,ERK1/2,decreased significantly
same,IL-13-induced phosphorylation of JAK1,"JAK1; ALI monolayer, AR inhibitor 24 h prior to IL-13",decreased significantly
same,basal phosphorylation of JAK1,"JAK1; AR inhibitor alone, no IL-13",decreased
same,cells alive after CSE,[1]; 12.5% CSE,more than 95%
same,cells alive after CSE,[1]; 50% CSE,> 85%
